# According to PubChem BioAssay (NCI):
#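 Protocol summary: plate cells (96-well), add compound at 5 concentrations, incubate 48 h, interpolate endpoints linearly. GI50 = concentration required for 50% inhibition of growth. TGI: concentration producing complete growth inhibition.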
# Assays:
# Test in all cases: NCI anticancer screen, dose series, 48 h
# 786-0 renal = tested on: 786-0 renal
# A498 renal = tested on: A498 renal
# A549 NSCLC = tested on: A549 NSCLC
# ACHN renal = tested on: ACHN renal
# BT-549 breast = tested on: BT-549 breast
# CCRF-CEM leukemia = tested on: CCRF-CEM leukemia
# COLO 205 colon = tested on: COLO 205 colon
# DU-145 prostate = tested on: DU-145 prostate
# EKVX NSCLC = tested on: EKVX NSCLC
# HCC-2998 colon = tested on: HCC-2998 colon
# HCT-116 colon = tested on: HCT-116 colon
# HCT-15 colon = tested on: HCT-15 colon
# HL-60(TB) leukemia = tested on: HL-60(TB) leukemia
# HOP-62 NSCLC = tested on: HOP-62 NSCLC
# HOP-92 NSCLC = tested on: HOP-92 NSCLC
# HS 578T breast = tested on: HS 578T breast
# HT29 colon = tested on: HT29 colon
# IGROV1 ovarian = tested on: IGROV1 ovarian
# KM12 colon = tested on: KM12 colon
# LOX IMVI melanoma = tested on: LOX IMVI melanoma
# M14 melanoma = tested on: M14 melanoma
# MALME-3M melanoma = tested on: MALME-3M melanoma
# MCF7 breast = tested on: MCF7 breast
# MDA-MB-231 breast = tested on: MDA-MB-231 breast
# MDA-MB-435 = tested on: MDA-MB-435
# MOLT-4 leukemia = tested on: MOLT-4 leukemia
# NCI-H226 lung = tested on: NCI-H226 lung
# NCI-H23 lung = tested on: NCI-H23 lung
# NCI-H460 lung = tested on: NCI-H460 lung
# NCI-H522 lung = tested on: NCI-H522 lung
# NCI/ADR-RES ovarian = tested on: NCI/ADR-RES ovarian
# OVCAR-3 ovarian = tested on: OVCAR-3 ovarian
# OVCAR-4 ovarian = tested on: OVCAR-4 ovarian
# OVCAR-5 ovarian = tested on: OVCAR-5 ovarian
# OVCAR-8 ovarian = tested on: OVCAR-8 ovarian
# PC-3 prostate = tested on: PC-3 prostate
# RPMI-8226 leukemia = tested on: RPMI-8226 leukemia
# RXF 393 renal = tested on: RXF 393 renal
# SF-268 CNS = tested on: SF-268 CNS
# SF-295 CNS = tested on: SF-295 CNS
# SF-539 CNS = tested on: SF-539 CNS
# SK-MEL-2 melanoma = tested on: SK-MEL-2 melanoma
# SK-MEL-28 melanoma = tested on: SK-MEL-28 melanoma
# SK-MEL-5 melanoma = tested on: SK-MEL-5 melanoma
# SK-OV-3 ovarian = tested on: SK-OV-3 ovarian
# SN12C renal = tested on: SN12C renal
# SNB-19 CNS = tested on: SNB-19 CNS
# SNB-75 CNS = tested on: SNB-75 CNS
# SR leukemia = tested on: SR leukemia
# SW-620 colon = tested on: SW-620 colon
# T-47D breast = tested on: T-47D breast
# TK-10 renal = tested on: TK-10 renal
# U251 CNS = tested on: U251 CNS
# UACC-257 melanoma = tested on: UACC-257 melanoma
# UACC-62 melanoma = tested on: UACC-62 melanoma
# UO-31 renal = tested on: UO-31 renal
smiles,measurement,setting,value
CC(C)(CCN=C(N)Nc1ccccn1)c1ccc(C(F)(F)F)cc1,GI50,786-0 renal,13.3 µM
same,TGI,786-0 renal,28.2 µM
same,GI50,A498 renal,14.9 µM
same,TGI,A498 renal,28.8 µM
same,GI50,A549 NSCLC,16.5 µM
same,TGI,A549 NSCLC,31.6 µM
same,GI50,ACHN renal,13.5 µM
same,TGI,ACHN renal,26.5 µM
same,GI50,BT-549 breast,15.1 µM
same,TGI,BT-549 breast,31.2 µM
same,GI50,CCRF-CEM leukemia,17.7 µM
same,TGI,CCRF-CEM leukemia,58.4 µM
same,GI50,COLO 205 colon,13.3 µM
same,TGI,COLO 205 colon,28.1 µM
same,GI50,DU-145 prostate,16.2 µM
same,TGI,DU-145 prostate,31.8 µM
same,GI50,EKVX NSCLC,11.2 µM
same,TGI,EKVX NSCLC,30.5 µM
same,GI50,HCC-2998 colon,15.1 µM
same,TGI,HCC-2998 colon,29.6 µM
same,GI50,HCT-116 colon,10.6 µM
same,TGI,HCT-116 colon,24.3 µM
same,GI50,HCT-15 colon,14.4 µM
same,TGI,HCT-15 colon,29.2 µM
same,GI50,HL-60(TB) leukemia,17.1 µM
same,TGI,HL-60(TB) leukemia,36 µM
same,GI50,HOP-62 NSCLC,15.7 µM
same,TGI,HOP-62 NSCLC,30.2 µM
same,GI50,HOP-92 NSCLC,13.3 µM
same,TGI,HOP-92 NSCLC,27.6 µM
same,GI50,HS 578T breast,18.1 µM
same,TGI,HS 578T breast,39.3 µM
same,GI50,HT29 colon,10.4 µM
same,TGI,HT29 colon,24 µM
same,GI50,IGROV1 ovarian,12 µM
same,TGI,IGROV1 ovarian,26.2 µM
same,GI50,KM12 colon,15.8 µM
same,TGI,KM12 colon,30.9 µM
same,GI50,LOX IMVI melanoma,14.2 µM
same,TGI,LOX IMVI melanoma,27.6 µM
same,GI50,M14 melanoma,14 µM
same,TGI,M14 melanoma,29.6 µM
same,GI50,MALME-3M melanoma,14.3 µM
same,TGI,MALME-3M melanoma,29.6 µM
same,GI50,MCF7 breast,12.2 µM
same,TGI,MCF7 breast,27.4 µM
same,GI50,MDA-MB-231 breast,14.9 µM
same,TGI,MDA-MB-231 breast,29.8 µM
same,GI50,MDA-MB-435,15.1 µM
same,TGI,MDA-MB-435,29 µM
same,GI50,MOLT-4 leukemia,14.5 µM
same,TGI,MOLT-4 leukemia,37.4 µM
same,GI50,NCI-H226 lung,13.6 µM
same,TGI,NCI-H226 lung,31.7 µM
same,GI50,NCI-H23 lung,12.7 µM
same,TGI,NCI-H23 lung,27.6 µM
same,GI50,NCI-H460 lung,15.3 µM
same,TGI,NCI-H460 lung,31.2 µM
same,GI50,NCI-H522 lung,14.5 µM
same,TGI,NCI-H522 lung,30.8 µM
same,GI50,NCI/ADR-RES ovarian,17.5 µM
same,TGI,NCI/ADR-RES ovarian,32.9 µM
same,GI50,OVCAR-3 ovarian,13.7 µM
same,TGI,OVCAR-3 ovarian,29.5 µM
same,GI50,OVCAR-4 ovarian,11.8 µM
same,TGI,OVCAR-4 ovarian,28.1 µM
same,GI50,OVCAR-5 ovarian,15.8 µM
same,TGI,OVCAR-5 ovarian,30.7 µM
same,GI50,OVCAR-8 ovarian,17.7 µM
same,TGI,OVCAR-8 ovarian,33.2 µM
same,GI50,PC-3 prostate,14.2 µM
same,TGI,PC-3 prostate,28.9 µM
same,GI50,RPMI-8226 leukemia,6.58 µM
same,TGI,RPMI-8226 leukemia,26.7 µM
same,GI50,RXF 393 renal,14.6 µM
same,TGI,RXF 393 renal,29.6 µM
same,GI50,SF-268 CNS,16.5 µM
same,TGI,SF-268 CNS,35.6 µM
same,GI50,SF-295 CNS,14.9 µM
same,TGI,SF-295 CNS,29.3 µM
same,GI50,SF-539 CNS,15.3 µM
same,TGI,SF-539 CNS,29.4 µM
same,GI50,SK-MEL-2 melanoma,16.9 µM
same,TGI,SK-MEL-2 melanoma,32.9 µM
same,GI50,SK-MEL-28 melanoma,15.8 µM
same,TGI,SK-MEL-28 melanoma,30.6 µM
same,GI50,SK-MEL-5 melanoma,12 µM
same,TGI,SK-MEL-5 melanoma,25 µM
same,GI50,SK-OV-3 ovarian,15.8 µM
same,TGI,SK-OV-3 ovarian,30.8 µM
same,GI50,SN12C renal,15.1 µM
same,TGI,SN12C renal,29.8 µM
same,GI50,SNB-19 CNS,16.9 µM
same,TGI,SNB-19 CNS,33.1 µM
same,GI50,SNB-75 CNS,12.9 µM
same,TGI,SNB-75 CNS,33.8 µM
same,GI50,SR leukemia,15.1 µM
same,TGI,SR leukemia,32.9 µM
same,GI50,SW-620 colon,16.1 µM
same,TGI,SW-620 colon,34 µM
same,GI50,T-47D breast,11.1 µM
same,TGI,T-47D breast,28.5 µM
same,GI50,TK-10 renal,15.5 µM
same,TGI,TK-10 renal,29.5 µM
same,GI50,U251 CNS,16.4 µM
same,TGI,U251 CNS,30.4 µM
same,GI50,UACC-257 melanoma,18 µM
same,TGI,UACC-257 melanoma,32.8 µM
same,GI50,UACC-62 melanoma,15.7 µM
same,TGI,UACC-62 melanoma,29.8 µM
same,GI50,UO-31 renal,10.7 µM
same,TGI,UO-31 renal,22.7 µM
